From the supplement of paper PMC8149375
“And” between values parts separate entries of the source, which are not always exact repeats. Equal entries are not always repeated.

Legend:
Conditions in all cases: treatment: drug alone; 5 days
[1] = system: 769-P; assay: GI50, drug alone; higher = less potent
Method: (§1)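 Primary HTS: 8 RCC cell lines treated with 8 doses (up to 10 uM) of each library drug alone for 5 days; viability read by CellTiter-Glo and normalised to DMSO. GI50 was fitted with XLfit (4-parameter), AUC is the area under the dose-response curve, and minimum viability is the lowest fraction of DMSO viability across doses.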

[2] = system: 786-O; assay: GI50, drug alone; higher = less potent
Method: as §1

[3] = system: A498; assay: GI50, drug alone; higher = less potent
Method: as §1

[4] = system: ACHN; assay: GI50, drug alone; higher = less potent
Method: as §1

[5] = system: CAKI-1; assay: GI50, drug alone; higher = less potent
Method: as §1

[6] = system: SN12C; assay: GI50, drug alone; higher = less potent
Method: as §1

[7] = system: TK-10; assay: GI50, drug alone; higher = less potent
Method: as §1

[8] = system: UO-31; assay: GI50, drug alone; higher = less potent
Method: as §1

[9] = system: 769-P; assay: minimum viability across doses, drug alone, relative to DMSO (fraction); higher = less growth inhibition
Method: as §1

[10] = system: 786-O; assay: as above
Method: as §1

[11] = system: A498; assay: as above
Method: as §1

[12] = system: ACHN; assay: as above
Method: as §1

[13] = system: CAKI-1; assay: as above
Method: as §1

[14] = system: SN12C; assay: as above
Method: as §1

[15] = system: TK-10; assay: as above
Method: as §1

[16] = system: UO-31; assay: as above
Method: as §1

[17] = system: 769-P; assay: AUC of dose-response viability curve, drug alone (arbitrary (AUC of normalised viability)); higher = less growth inhibition
Method: as §1

[18] = system: 786-O; assay: as above
Method: as §1

[19] = system: A498; assay: as above
Method: as §1

[20] = system: ACHN; assay: as above
Method: as §1

[21] = system: CAKI-1; assay: as above
Method: as §1

[22] = system: SN12C; assay: as above
Method: as §1

[23] = system: TK-10; assay: as above
Method: as §1

[24] = system: UO-31; assay: as above
Method: as §1

| GI50, drug alone [2] | GI50, drug alone [4] | Structure (SMILES) | GI50, drug alone [1] | GI50, drug alone [3] | GI50, drug alone [5] | GI50, drug alone [6] | GI50, drug alone [7] | GI50, drug alone [8] | minimum viability across doses [9] | minimum viability across doses [10] | minimum viability across doses [11] | minimum viability across doses [12] | minimum viability across doses [13] | minimum viability across doses [14] | minimum viability across doses [15] | minimum viability across doses [16] | AUC of dose-response viability curve [17] | AUC of dose-response viability curve [18] | AUC of dose-response viability curve [19] | AUC of dose-response viability curve [20] | AUC of dose-response viability curve [21] | AUC of dose-response viability curve [22] | AUC of dose-response viability curve [23] | AUC of dose-response viability curve [24] |
| --- | --- | --- | --- | --- | --- | --- | --- | --- | --- | --- | --- | --- | --- | --- | --- | --- | --- | --- | --- | --- | --- | --- | --- | --- |
| 0.0243 µM | 0.0508 µM | COc1cc2ncnc(Nc3ccc(F)c(Cl)c3)c2cc1NC(=O)/C=C/CN1CCCCC1 | 0.21 µM | 3 µM | 1.3 µM | 1.36 µM | 0.146 µM | 2.82 µM | 0.0108 | 0.0062 | 0.0166 | 0.00434 | 0.00809 | 0.00743 | 0.0112 | 0.0173 | 1.85 | 1.39 | 3.2 | 1.4 | 2.17 | 2.09 | 1.7 | 2.7 |
| 1.84 µM | 4.03 µM | C[C@@H](Oc1cc(-c2cnn(C3CCNCC3)c2)cnc1N)c1c(Cl)ccc(F)c1Cl | 6.06 µM | 9.41 µM | 4.01 µM | 2.43 µM | 5.34 µM | 4.17 µM | 0.117 | 0.0211 | 0.346 | 0.225 | 0.0408 | 0.154 | 0.239 | 0.169 | 3.14 | 2.67 | 3.48 | 3.07 | 3.06 | 2.68 | 3.23 | 3.1 |
| 1.32 µM | 1.14 µM | COc1cc2c(Oc3ccc(NC(=O)C4(C(=O)Nc5ccc(F)cc5)CC4)cc3F)ccnc2cc1OCCCN1CCOCC1 | 2.91 µM | 3.26 µM | 0.575 µM | 1.2 µM | 1.07 µM | 2.91 µM | 0.0122 | 0.00765 | 0.0481 | 0.00485 | 0.00629 | 0.0104 | 0.00697 | 0.0119 | 2.75 | 2.39 | 3.15 | 2.6 | 2.12 | 2.34 | 2.37 | 3.04 |
| 0.45 µM | 1.09 µM | O=C1NC(=O)/C(=C/c2ccc3nccc(-c4ccncc4)c3c2)S1 | 6.26 µM | 4.57 µM | 0.412 µM | 1.16 µM | 2.29 µM | 0.498 µM | 0.43 | 0.216 | 0.341 | 0.219 | 0.125 | 0.26 | 0.467 | 0.0334 | 2.87 | 2.19 | 2.97 | 2.48 | 2.21 | 2.4 | 2.63 | 2.45 |
| > 10 µM | > 10 µM | COCC(=O)NC/C=C/c1ccc2ncnc(Nc3ccc(Oc4ccc(C)nc4)c(C)c3)c2c1 | > 10 µM | > 10 µM | > 10 µM | > 10 µM | > 10 µM | > 10 µM | 0.878 | 0.717 | 1.07 | 0.61 | 0.937 | 0.739 | 0.661 | 1.11 | 3.37 | 2.92 | 4.6 | 3.39 | 3.51 | 3.1 | 3.07 | 5.09 |
| > 10 µM | 5.47 µM | CCc1cc2c(cc1N1CCC(N3CCOCC3)CC1)C(C)(C)c1[nH]c3cc(C#N)ccc3c1C2=O | > 10 µM | > 10 µM | 5.02 µM | > 10 µM | > 10 µM | > 10 µM | 0.922 | 0.655 | 1.06 | 0.366 | 0.428 | 0.801 | 0.612 | 1.02 | 3.67 | 3 | 5.08 | 3 | 2.98 | 3.28 | 2.93 | 6.33 |
| > 10 µM | 1.4 µM | CN1CCN(c2cccc(Nc3nc4c(-c5ccc(S(C)(=O)=O)cc5)cccn4n3)c2)CC1 | > 10 µM | > 10 µM | 2.31 µM | > 10 µM | 3.53 µM | > 10 µM | 0.782 | 0.585 | 1.13 | 0.293 | 0.244 | 0.599 | 0.298 | 0.707 | 3.49 | 3.18 | 4.91 | 2.65 | 2.85 | 3.13 | 2.82 | 4.6 |
| 0.227 µM and 0.213 µM | 1.3 µM and 0.603 µM | CO[C@@H](C(=O)N1Cc2[nH]nc(NC(=O)c3ccc(N4CCN(C)CC4)cc3)c2C1)c1ccccc1 | 8.85 µM and 8.39 µM | 8.18 µM and > 10 µM | 1.11 µM and 0.96 µM | 1.19 µM and 0.929 µM | 2.64 µM and 1.85 µM | > 10 µM | 0.463 and 0.473 | 0.00938 and 0.00426 | 0.516 and 0.594 | 0.176 and 0.142 | 0.139 and 0.0977 | 0.174 and 0.144 | 0.174 and 0.139 | 0.7 and 0.698 | 3.09 and 3.4 | 1.52 and 1.67 | 3.26 and 3.77 | 2.19 and 2.18 | 2.45 and 2.51 | 2.38 and 2.35 | 2.6 and 2.61 | 3.34 and 3.7 |
| 2.76 µM | 1.86 µM | CN(C)c1ccc(-c2nc3c(N4CCN(CC(=O)Nc5nccs5)CC4)c(Cl)cnc3[nH]2)cc1 | 5.51 µM | > 10 µM | 1.26 µM | 5.4 µM | > 10 µM | 2.01 µM | 0.39 | 0.259 | 0.622 | 0.18 | 0.115 | 0.434 | 0.574 | 0.0202 | 2.85 | 2.24 | 4.21 | 2.58 | 2.57 | 2.76 | 2.91 | 3.93 |
